{"source": "ChEMBL document CHEMBL1201862", "about": "“PubChem BioAssay data set” (2004)", "key": {"[1]": {"test": "THP-1 cell cytotoxicity, dose response, cytotoxicity control for Vif-APOBEC3G degradation inhibitor project, THP-1 cells (AID 1117359)", "assay_type": "functional", "conditions": "Human immunodeficiency virus 1, THP-1"}, "[2]": {"test": "non-specific cell cytotoxicity, dose response, cytotoxicity control for PAX8 inhibitor project, plate reader, dry powder samples (AID 743021)", "assay_type": "functional, cell-based"}, "Vero": {"tested_on": "Vero", "test": "Vero cell cytotoxicity, cytotoxicity control for flavivirus capping enzyme inhibitors (AID 588742)", "assay_type": "functional", "conditions": "Chlorocebus sabaeus"}, "[3]": {"biological_target": "Luciferin 4-monooxygenase (Photinus pyralis, UniProt P08659)", "sequence (P08659 whole entry)": "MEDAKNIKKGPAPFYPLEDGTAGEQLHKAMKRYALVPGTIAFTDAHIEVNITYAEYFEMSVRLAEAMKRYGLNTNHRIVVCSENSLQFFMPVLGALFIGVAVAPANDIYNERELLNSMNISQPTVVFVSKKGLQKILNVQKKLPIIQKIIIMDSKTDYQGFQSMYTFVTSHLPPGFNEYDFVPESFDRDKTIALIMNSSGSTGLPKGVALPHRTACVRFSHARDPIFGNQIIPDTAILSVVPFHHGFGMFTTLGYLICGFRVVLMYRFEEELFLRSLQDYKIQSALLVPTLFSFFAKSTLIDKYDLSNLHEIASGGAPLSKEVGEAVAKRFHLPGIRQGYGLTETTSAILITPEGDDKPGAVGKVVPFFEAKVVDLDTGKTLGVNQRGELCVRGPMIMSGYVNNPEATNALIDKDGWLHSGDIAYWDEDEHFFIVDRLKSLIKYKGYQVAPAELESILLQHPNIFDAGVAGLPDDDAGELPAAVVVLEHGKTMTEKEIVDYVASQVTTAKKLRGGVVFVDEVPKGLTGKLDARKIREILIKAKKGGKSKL", "test": "firefly luciferase enzyme inhibitors, dose response, biochemical, luminescence (AID 1891)"}, "[4]": {"test": "Luminescence Cell-Based Dose Confirmation HTS to Identify Inhibitors of Platelet Dense Granule Release. [Related pubchem assays: 1663 (Primary HTS), 1678 (Summary of Project)]", "assay_type": "functional"}, "Paired box protein Pax-8": {"biological_target": "Paired box protein Pax-8 (Homo sapiens, UniProt Q06710)", "sequence (Q06710 whole entry)": "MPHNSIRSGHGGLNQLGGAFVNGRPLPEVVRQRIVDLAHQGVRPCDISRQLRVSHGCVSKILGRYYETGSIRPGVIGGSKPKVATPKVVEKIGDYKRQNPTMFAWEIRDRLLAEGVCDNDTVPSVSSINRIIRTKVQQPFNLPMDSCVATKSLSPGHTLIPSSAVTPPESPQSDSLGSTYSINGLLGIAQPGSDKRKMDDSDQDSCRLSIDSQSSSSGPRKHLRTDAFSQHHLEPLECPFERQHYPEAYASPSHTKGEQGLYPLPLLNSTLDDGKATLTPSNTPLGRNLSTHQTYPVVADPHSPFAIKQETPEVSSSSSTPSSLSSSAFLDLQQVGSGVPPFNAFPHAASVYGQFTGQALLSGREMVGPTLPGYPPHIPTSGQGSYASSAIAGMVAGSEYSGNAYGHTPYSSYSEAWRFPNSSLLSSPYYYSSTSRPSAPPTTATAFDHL", "test": "inhibitors of PAX8-driven TPO luciferase reporter, dose response, RMG-I cells, cherry-pick (AID 687027);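 also: luciferase reporter driven by Pax8 target thyroperoxidase promoter measured by SteadyGlo luminescence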", "assay_type": "functional, cell-based"}, "[5]": {"test": "HepG2 cell cytotoxicity, dose response, cytotoxicity control, cherry-picked samples (AID 1159577)", "assay_type": "functional, cell-based"}, "[6]": {"test": "P. falciparum Dd2 growth inhibitors, dose response, SYBR Green, cherry-picked samples (AID 1159567)", "assay_type": "functional, cell-based"}, "[7]": {"test": "off-target signal loss in HeLa-CEM21 co-culture – HeLa F-luc CTL cells, cherry-picked, counter-screen for HIV-1 Env fusion inhibitor project, dose response (AID 652040);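 also: potency for signal decrease marking cytotoxic or nonspecific inhibition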", "assay_type": "functional, cell-based"}, "[8]": {"test": "Luminescence Cell-Based Dose Retest to Confirm Inhibitors of Cancer Stem Cells. [Related pubchem assays (depositor defined):AID2717, AID2721]", "assay_type": "functional", "conditions": "Homo sapiens"}, "[9]": {"test": "inhibitors of HIV Env-driven cell fusion, dose response, cherry-pick (AID 652057)", "assay_type": "functional, cell-based"}, "[10]": {"test": "ZM109 Env clade C HIV-1 fusion inhibitors, dose response, HeLa effector, CEM target cells, luciferase, cherry-pick (AID 652058)", "assay_type": "functional, cell-based"}, "[11]": {"biological_target": "Mitogen-activated protein kinase 10 (Homo sapiens, UniProt P53779)", "test": "Dose response biochemical screening assay for inhibitors of c-Jun N-Terminal Kinase 3 (JNK3). [Related pubchem assays: 746 ]"}, "[12]": {"biological_target": "Peroxisome proliferator-activated receptor gamma/Nuclear receptor coactivator 1 (Homo sapiens, UniProt P37231)", "test": "(§1) TR-FRET dose response biochemical High Throughput Screening assay for agonists of the steroid receptor coactivator 1 (SRC-1) recruitment by the peroxisome proliferator-activated receptor gamma (PPAR gamma): non-selective agonists. [Related pubchem assays (depositor defined):AID1300, AID1808, AID504735, AID631]", "assay_type": "protein assay"}, "[13]": {"biological_target": "Peroxisome proliferator-activated receptor gamma/Nuclear receptor coactivator 3 (Homo sapiens, UniProt P37231)", "sequence (P37231 whole entry)": "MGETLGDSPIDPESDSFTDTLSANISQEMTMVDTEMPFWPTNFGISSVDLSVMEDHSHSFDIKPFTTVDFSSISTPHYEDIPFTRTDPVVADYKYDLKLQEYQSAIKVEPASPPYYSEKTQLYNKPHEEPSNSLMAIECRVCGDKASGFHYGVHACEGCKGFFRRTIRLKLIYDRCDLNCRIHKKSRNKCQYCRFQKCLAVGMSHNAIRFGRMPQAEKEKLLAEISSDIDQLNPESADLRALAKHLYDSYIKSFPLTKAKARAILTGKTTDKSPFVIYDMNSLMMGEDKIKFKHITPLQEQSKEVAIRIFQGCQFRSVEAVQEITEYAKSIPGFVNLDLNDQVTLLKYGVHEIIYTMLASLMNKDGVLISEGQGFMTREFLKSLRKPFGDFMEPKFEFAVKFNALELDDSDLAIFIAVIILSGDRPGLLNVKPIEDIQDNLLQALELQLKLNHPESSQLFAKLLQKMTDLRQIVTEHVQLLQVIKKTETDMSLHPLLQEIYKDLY", "sequence (Q9Y6Q9 whole entry, further chain)": "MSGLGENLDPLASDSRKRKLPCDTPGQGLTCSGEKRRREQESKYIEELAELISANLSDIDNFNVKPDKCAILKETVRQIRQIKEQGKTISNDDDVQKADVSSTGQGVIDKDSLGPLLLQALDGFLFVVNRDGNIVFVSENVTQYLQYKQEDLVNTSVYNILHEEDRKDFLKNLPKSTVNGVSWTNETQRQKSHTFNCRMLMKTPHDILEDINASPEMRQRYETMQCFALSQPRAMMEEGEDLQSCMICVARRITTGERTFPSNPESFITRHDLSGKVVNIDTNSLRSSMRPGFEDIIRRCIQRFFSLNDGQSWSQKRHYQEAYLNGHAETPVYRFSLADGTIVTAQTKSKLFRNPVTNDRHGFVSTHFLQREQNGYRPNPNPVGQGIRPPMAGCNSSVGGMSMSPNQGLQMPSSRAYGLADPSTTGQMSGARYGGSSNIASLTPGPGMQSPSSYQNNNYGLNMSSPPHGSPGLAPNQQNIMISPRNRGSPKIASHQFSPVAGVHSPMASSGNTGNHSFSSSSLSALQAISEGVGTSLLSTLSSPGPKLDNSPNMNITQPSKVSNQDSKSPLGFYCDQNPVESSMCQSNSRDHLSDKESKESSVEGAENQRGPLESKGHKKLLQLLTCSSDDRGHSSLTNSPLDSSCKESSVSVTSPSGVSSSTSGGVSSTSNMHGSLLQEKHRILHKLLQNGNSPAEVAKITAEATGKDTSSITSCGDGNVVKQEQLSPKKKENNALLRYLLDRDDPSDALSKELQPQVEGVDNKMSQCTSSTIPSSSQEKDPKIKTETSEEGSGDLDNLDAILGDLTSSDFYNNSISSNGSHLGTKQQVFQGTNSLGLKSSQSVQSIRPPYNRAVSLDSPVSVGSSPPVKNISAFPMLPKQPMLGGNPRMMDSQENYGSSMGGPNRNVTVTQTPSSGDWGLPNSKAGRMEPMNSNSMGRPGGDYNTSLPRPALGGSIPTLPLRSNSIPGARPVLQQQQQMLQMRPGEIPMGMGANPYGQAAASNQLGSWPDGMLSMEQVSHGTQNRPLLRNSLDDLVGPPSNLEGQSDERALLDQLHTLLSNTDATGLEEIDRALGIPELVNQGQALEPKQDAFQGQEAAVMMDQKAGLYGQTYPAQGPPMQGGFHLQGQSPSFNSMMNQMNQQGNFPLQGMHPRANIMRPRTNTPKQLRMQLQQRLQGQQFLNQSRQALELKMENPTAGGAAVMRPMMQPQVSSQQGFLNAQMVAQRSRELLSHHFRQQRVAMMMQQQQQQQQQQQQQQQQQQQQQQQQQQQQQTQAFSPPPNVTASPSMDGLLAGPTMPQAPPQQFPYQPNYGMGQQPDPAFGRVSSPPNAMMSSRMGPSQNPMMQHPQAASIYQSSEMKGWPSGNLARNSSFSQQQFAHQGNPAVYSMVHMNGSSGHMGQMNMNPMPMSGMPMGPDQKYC", "test": "as §1, with “3 (SRC-3)” for “1 (SRC-1)”, “assays: 1301 (Confirmation screen.), 1048 (Primary screen.)]” for “assays (depositor defined):AID1300, AID1808, AID504735, AID631]”", "assay_type": "functional"}, "[14]": {"biological_target": "Peroxisome proliferator-activated receptor gamma/Nuclear receptor coactivator 2 (Homo sapiens, UniProt P37231)", "sequence (P37231 whole entry)": "as the sequence (P37231 whole entry) above", "sequence (Q15596 whole entry, further chain)": "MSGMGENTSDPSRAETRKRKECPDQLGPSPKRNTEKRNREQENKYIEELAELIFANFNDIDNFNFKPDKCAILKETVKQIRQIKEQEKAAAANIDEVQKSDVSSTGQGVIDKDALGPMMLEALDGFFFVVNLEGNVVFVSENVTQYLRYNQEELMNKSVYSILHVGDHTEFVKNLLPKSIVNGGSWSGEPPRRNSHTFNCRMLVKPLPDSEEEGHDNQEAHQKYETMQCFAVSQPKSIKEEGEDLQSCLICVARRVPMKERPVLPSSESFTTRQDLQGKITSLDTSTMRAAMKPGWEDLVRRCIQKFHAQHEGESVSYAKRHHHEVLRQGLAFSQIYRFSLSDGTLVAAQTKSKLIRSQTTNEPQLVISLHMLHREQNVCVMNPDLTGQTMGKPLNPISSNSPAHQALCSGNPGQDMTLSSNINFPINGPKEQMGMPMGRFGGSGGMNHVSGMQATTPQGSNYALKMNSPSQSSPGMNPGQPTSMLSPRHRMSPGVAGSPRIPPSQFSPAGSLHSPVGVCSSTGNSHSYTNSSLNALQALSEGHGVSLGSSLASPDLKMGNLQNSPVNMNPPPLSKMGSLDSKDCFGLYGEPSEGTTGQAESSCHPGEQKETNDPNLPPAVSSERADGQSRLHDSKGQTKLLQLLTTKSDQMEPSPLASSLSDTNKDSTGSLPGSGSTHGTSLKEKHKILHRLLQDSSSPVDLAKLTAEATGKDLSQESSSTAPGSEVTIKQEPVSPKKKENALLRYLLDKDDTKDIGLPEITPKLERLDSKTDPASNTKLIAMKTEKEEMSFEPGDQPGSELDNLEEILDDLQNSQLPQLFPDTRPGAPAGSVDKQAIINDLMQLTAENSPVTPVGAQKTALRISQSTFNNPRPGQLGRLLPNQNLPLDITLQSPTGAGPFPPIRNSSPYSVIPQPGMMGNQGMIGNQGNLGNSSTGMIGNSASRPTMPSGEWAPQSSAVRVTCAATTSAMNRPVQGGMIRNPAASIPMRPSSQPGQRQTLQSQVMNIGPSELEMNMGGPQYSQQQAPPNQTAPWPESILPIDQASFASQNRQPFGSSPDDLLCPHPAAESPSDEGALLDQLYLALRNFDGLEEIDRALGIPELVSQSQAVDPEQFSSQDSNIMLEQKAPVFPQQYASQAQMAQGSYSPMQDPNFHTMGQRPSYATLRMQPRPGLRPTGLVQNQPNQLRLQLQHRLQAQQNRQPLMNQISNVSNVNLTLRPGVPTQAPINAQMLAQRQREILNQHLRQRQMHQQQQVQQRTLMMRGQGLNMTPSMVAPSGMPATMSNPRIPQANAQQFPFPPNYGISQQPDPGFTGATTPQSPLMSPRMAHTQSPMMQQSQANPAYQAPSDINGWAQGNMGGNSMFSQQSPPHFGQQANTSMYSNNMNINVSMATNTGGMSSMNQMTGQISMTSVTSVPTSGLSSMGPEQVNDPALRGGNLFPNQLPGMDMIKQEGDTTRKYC", "test": "TR-FRET dose response biochemical High Throughput Screening assay for agonists of the steroid receptor coactivator 2 (SRC-2) recruitment by the peroxisome proliferator-activated receptor gamma (PPAR gamma): non-selective agonists. [Related pubchem assays: 1297, 1032 ]", "assay_type": "functional"}, "[15]": {"test": "inhibitors of clade B AD8 Env fusion, dose response, cell-based, cherry-pick (AID 652062)", "assay_type": "functional"}, "[16]": {"biological_target": "E3 ubiquitin-protein ligase Mdm2 (Homo sapiens, UniProt Q00987)", "test": "enhancers of MDM2-luciferase reporter signal, concentration-effect titration, project on inhibitors of MDM2 ubiquitin ligase, cellular assay, luminescent readout, 384-well plate format (AID 1394)", "assay_type": "functional"}}, "note": "Calls of active or inactive are those of the source.", "data": [{"smiles": "Nc1nc(Sc2ccc([N+](=O)[O-])c3nonc23)c2nc[nH]c2n1", "values": [{"measurement": "CC50", "setting": "[1]", "value": "0.68 µM (active)"}, {"measurement": "AC50", "setting": "[2]", "value": "1.17 µM (active)"}, {"measurement": "CC50", "setting": "Vero", "value": "5.9 µM (active)"}]}, {"smiles": "CCOc1ccc(C(=O)O/N=C(\\N)c2ccccn2)cc1", "values": [{"measurement": "EC50", "setting": "[3]", "value": "0.847 µM (active)"}, {"measurement": "EC50", "setting": "[4]", "value": "0.499 µM (active)"}, {"measurement": "AC50", "setting": "Paired box protein Pax-8", "value": "7.43 µM (active)"}, {"measurement": "AC50", "setting": "[2]", "value": "34.9 µM (active)"}]}, {"smiles": "N#C[C@@H]1[C@@H](c2ccc(C#Cc3ccc(F)cc3)cc2)[C@H](CO)N1C(=O)C1CCC1", "values": [{"measurement": "AC50", "setting": "[5]", "value": "> 39 µM (inactive)"}, {"measurement": "AC50", "setting": "[6]", "value": "6.15 µM (active)"}]}, {"smiles": "CCCCCCOc1ccc(OC(=O)c2ccncc2)cc1", "values": [{"measurement": "AC50", "setting": "[7]", "value": "5.4 µM (active)"}, {"measurement": "AC50", "setting": "[8]", "value": "3.67 µM (active)"}, {"measurement": "AC50", "setting": "[9]", "value": "4.71 µM (active)"}, {"measurement": "AC50", "setting": "[10]", "value": "44.6 µM (active)"}]}, {"smiles": "COc1ccc(C2C(C(=O)NCc3ccco3)CCC(=O)N2c2ccc(OC)cc2)cc1", "note": "(configuration not stated)", "values": [{"measurement": "IC50", "setting": "[11]", "value": "> 93.1 µM (not active)"}]}, {"smiles": "COc1ccccc1OCC(=O)Nc1nnc(-c2ccco2)s1", "values": [{"measurement": "EC50", "setting": "[12]", "value": "42.4 µM (inactive)"}, {"measurement": "EC50", "setting": "[13]", "value": "> 79.4 µM (not active)"}, {"measurement": "EC50", "setting": "[14]", "value": "32.1 µM (not active)"}]}, {"smiles": "COc1ccc(N(CC(=O)NCCSCc2ccc(Cl)cc2)S(C)(=O)=O)cc1Cl", "values": [{"measurement": "AC50", "setting": "[7]", "value": "5.7 µM (active)"}, {"measurement": "AC50", "setting": "[15]", "value": "6.47 µM (active)"}, {"measurement": "AC50", "setting": "[9]", "value": "2.9 µM (active)"}, {"measurement": "AC50", "setting": "[10]", "value": "4.11 µM (active)"}]}, {"smiles": "O=C(CSc1ccc(-c2ccco2)nn1)NC1CCCC1", "values": [{"measurement": "EC50", "setting": "[16]", "value": "0.75 µM (not active)"}]}, {"smiles": "CC(=O)C1=C(C)N(Cc2ccc(Br)cc2)C(=S)NC1c1cccc(Cl)c1", "note": "(configuration not stated)", "values": [{"measurement": "AC50", "setting": "[7]", "value": "10 µM (active)"}, {"measurement": "AC50", "setting": "[15]", "value": "28.4 µM (active)"}, {"measurement": "AC50", "setting": "[9]", "value": "4.14 µM (active)"}, {"measurement": "AC50", "setting": "[10]", "value": "6.83 µM (active)"}]}, {"smiles": "COc1ccccc1C1CC(c2ccccc2)=NN1C(S)=Nc1ccccc1", "note": "(configuration not stated)", "values": [{"measurement": "EC50", "setting": "[12]", "value": "9.45 µM (active)"}, {"measurement": "EC50", "setting": "[13]", "value": "80.4 µM (not active)"}, {"measurement": "EC50", "setting": "[14]", "value": "10.6 µM (not active)"}]}, {"smiles": "C[C@H](CO)N1C[C@H](C)[C@H](CN(C)S(=O)(=O)c2ccccc2)Oc2ccc(NC(=O)Nc3ccccc3)cc2CC1=O", "values": [{"measurement": "AC50", "setting": "[15]", "value": "3 µM (active)"}, {"measurement": "AC50", "setting": "[9]", "value": "< 0.26 µM (active)"}, {"measurement": "AC50", "setting": "[10]", "value": "0.414 µM (active)"}]}]}
